Measurements taken from patent EP4799701A2, “PYRIMID-2-YL-PYRAZOLE COMPOUNDS AS IRAK INHIBITORS” (Rigel Pharmaceuticals, Inc., priority 2022, dated 2023).

Tested on: TLR4-induced IL-23
Experiment: IL23-p19 ELISA, dendritic cells (PBMC-derived), LPS stimulated
Format: cell-based
Conditions: human primary dendritic cells (DC); result in words
Procedure: Compound Screening Using DC Cells
• Human PBMC cells (All Cells, Cat No. PB002) • RPMI growth media containing 10% FBS • IFNγ (Peprotech, Cat No. 300-02) • GMCSF (Peprotech, Cat No. 300-03) and IL4 (Peprotech Cat No. 200-04) • White clear bottom 96 well plates (Fisher, Cat No. 07-200-587, Corning #3903) • LPS (Make 2.5 mg/ml Stock in PBS) from Sigma Aldrich (Cat No. L2018-5MG) • Cell Titer Glo reagent (Promega, Cat No. G7573) • Positive controls, IKK2VI inhibitor (Calbiochem, Cat No. 401483)
Human PBMC cells (400 million) obtained from the vendor were transferred into a T-175 flask containing 15 ml RPMI media (10% FBS) and incubate for 2 hours at 37 °C. […]
155 µl of the supernatant was harvested from each well carefully (without the tip touching the bottom of the well) and to the remaining 50 µl / well of the cell culture plate was added 50 µl of Cell Titer Glo reagent. The mixture was incubated for 1-2 minutes on a shaker and the plate was read for luminescence intensity to determine the compound cytotoxicity. […]
After 45 minutes, the plates were washed with TBST 4X and 100 ul / well Super Signal ELISA Pico Chemiluminescent Substrate from Pierce (3.5 ml A + 3.5 ml B + 3.5 ml MQ water) was added. The plates were shaken for 1-2 minutes then read on a plate reader. […]

**Q.** For `CCO[C@H]1CC[C@H](n2cc(NC(=O)c3csc(-c4cn[nH]c4)n3)c(-c3ncccn3)n2)CC1` [Compound I-1, N-(1-((1r,4r)-4-ethoxycyclohexyl)-3-(pyrimidin-2-yl)-1H-pyrazol-4-yl)-2-(1H-pyrazol-4-yl)thiazole-4-carboxamide], which “TLR4-induced IL-23 production” value is on record?
**A.** blocks
